Consider 13 compounds from US20230093099A1, “COMPOUNDS AND METHODS OF TREATING CANCERS” (CULLGEN (SHANGHAI), INC., priority 2019, published 2023).

The structures appear in SMILES notation. Bounds are passed on as bounds.

For the first test, the system named is RS4;11 cells. The experiment in a line: Cell viability assay (CellTiter-Glo) in RS4;11 cells. In kind it is cell-based. Particulars: Homo sapiens, 72 h; RS4;11 ALL cells treated for three days; read-out: cell viability inhibition IC50. The method in brief: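 RS4;11 cells seeded at 5000 per well, exposed for 3 days to 8- or 12-point 3-fold serial dilutions. Viability read by CellTiter-Glo luminescence; IC50 fitted by nonlinear least-squares regression.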
As for `O=C1CCC(N2C(=O)c3ccc(NCCCCC(=O)N4CCC(n5cc(-c6cnc7cccc(-c8cc(F)c(CN9CCOCC9)c(F)c8)c7n6)cn5)CC4)cc3C2=O)C(=O)N1` (centres unmarked) [JA-182, 5-((5-(4-(4-(8-(3,5-difluoro-4-(morpholinomethyl)phenyl)quinoxalin-2-yl)-1H-pyrazol-1-yl)piperidin-1-yl)-5-oxopentyl)amino)-2-(2,6-dioxopiperidin-3-yl)isoindoline-1,3-dione], the IC50 – broadly, the point on the concentration scale where inhibition reaches its midpoint – was below 0.1 µM.

The test is the same for the next values; noted with them: Homo sapiens, 72 h; RS4;11 cells; cell viability, 3 days, CellTiter-Glo; read-out: IC50.
In the case of `O=C1CCC(N2C(=O)c3cccc(NCCC(=O)N4CCC(n5cc(-c6cnc7cccc(-c8cc(F)c(CN9CCOCC9)c(F)c8)c7n6)cn5)CC4)c3C2=O)C(=O)N1` (centres unmarked) [JA-004, 4-[[3-[4-[4-[8-[3,5-Difluoro-4-(morpholinomethyl)phenyl]quinoxalin-2-yl]pyrazol-1-yl]-1-piperidyl]-3-oxo-propyl]amino]-2-(2,6-dioxo-3-piperidyl)isoindoline-1,3-dione], the half-inhibitory concentration (IC50) worked out at 3.35 µM.

As to `Cc1cnc(Nc2ccc(N3CCN(CC(=O)NCCCCCCCNc4ccc5c(c4)C(=O)N(C4CCC(=O)NC4=O)C5=O)CC3)cc2)nc1Nc1cccc(S(=O)(=O)NC(C)(C)C)c1` (centres unmarked) [JA-246, 2-(4-(4-((4-((3-(N-(tert-butyl)sulfamoyl)phenyl)amino)-5-methylpyrimidin-2-yl)amino)phenyl)piperazin-1-yl)-N-(7-((2-(2,6-dioxopiperidin-3-yl)-1,3-dioxoisoindolin-5-yl)amino)heptyl)acetamide], the IC50 stood at 0.229 µM.

On to `Cc1cnc(Nc2ccc(N3CCN(CC(=O)NCCCCCCCCC(=O)N[C@H](C(=O)N4C[C@H](O)C[C@H]4C(=O)NCc4ccc(-c5scnc5C)cc4)C(C)(C)C)CC3)cc2)nc1Nc1cccc(S(=O)(=O)NC(C)(C)C)c1` [JA-104, (2S,4R)-1-((S)-2-(9-(2-(4-(4-((4-((3-(N-(tert-Butyl)sulfamoyl)phenyl)amino)-5-methylpyrimidin-2-yl)amino)phenyl)piperazin-1-yl)acetamido)nonanamido)-3,3-dimethylbutanoyl)-4-hydroxy-N-(4-(4-methylthiazol-5-yl)benzyl)pyrrolidine-2-carboxamide], for which the IC50 was above 10 µM.

On to `O=C1CCC(N2C(=O)c3ccc(OCCCCCC(=O)N4CCC(n5cc(-c6cnc7cccc(-c8cc(F)c(CN9CCOCC9)c(F)c8)c7n6)cn5)CC4)cc3C2=O)C(=O)N1` (centres unmarked) [JA-260, 5-((6-(4-(4-(8-(3,5-Difluoro-4-(morpholinomethyl)phenyl)quinoxalin-2-yl)-1H-pyrazol-1-yl)piperidin-1-yl)-6-oxohexyl)oxy)-2-(2,6-dioxopiperidin-3-yl)isoindoline-1,3-dione], for which the IC50 was 0.164 µM.

For `Cc1ncsc1-c1ccc(CNC(=O)[C@@H]2C[C@@H](O)CN2C(=O)[C@@H](NC(=O)CCCCNC(=O)CN2CCC(n3cc(-c4cnc5cccc(-c6cc(F)c(CN7CCOCC7)c(F)c6)c5n4)cn3)CC2)C(C)(C)C)cc1` [JA-168, (2S,4R)-1-((S)-2-(5-(2-(4-(4-(8-(3,5-Difluoro-4-(morpholinomethyl)phenyl)quinoxalin-2-yl)-1H-pyrazol-1-yl)piperidin-1-yl)acetamido)pentanamido)-3,3-dimethylbutanoyl)-4-hydroxy-N-(4-(4-methylthiazol-5-yl)benzyl)pyrrolidine-2-carboxamide], the half-maximal inhibitory concentration (IC50) was above 10 µM.

In the case of `CS(=O)(=O)c1ccc(-c2cccc3nc(Nc4ccc(N5CCN(CC(=O)NCCCNc6cccc7c6C(=O)N(C6CCC(=O)NC6=O)C7=O)CC5)cc4)nn23)cc1` (centres unmarked) [JA-111, N-(3-((2-(2,6-Dioxopiperidin-3-yl)-1,3-dioxoisoindolin-4-yl)amino)propyl)-2-(4-(4-((5-(4-(methylsulfonyl)phenyl)-[1,2,4]triazolo[1,5-a]pyridin-2-yl)amino)phenyl)piperazin-1-yl)acetamide], the IC50 is above 10 µM.

Turning to `CS(=O)(=O)c1ccc(-c2cccc3nc(Nc4ccc(N5CCN(CC(=O)NCCOCCOCCNc6cccc7c6C(=O)N(C6CCC(=O)NC6=O)C7=O)CC5)cc4)nn23)cc1` (centres unmarked) [JA-115, N-(2-(2-(2-((2-(2,6-Dioxopiperidin-3-yl)-1,3-dioxoisoindolin-4-yl)amino)ethoxy)ethoxy)ethyl)-2-(4-(4-((5-(4-(methylsulfonyl)phenyl)-[1,2,4]triazolo[1,5-a]pyridin-2-yl)amino)phenyl)piperazin-1-yl)acetamide], the IC50 was 2.14 µM.

Take `O=C1CCC(N2C(=O)c3ccc(NCCCCC(=O)N4CCC(n5cc(-c6cnc7cccc(-c8cc(F)c(CN9CCOCC9)c(F)c8)c7n6)cn5)CC4)cc3C2=O)C(=O)N1` (centres unmarked) [JA-182, 5-((5-(4-(4-(8-(3,5-difluoro-4-(morpholinomethyl)phenyl)quinoxalin-2-yl)-1H-pyrazol-1-yl)piperidin-1-yl)-5-oxopentyl)amino)-2-(2,6-dioxopiperidin-3-yl)isoindoline-1,3-dione]: the IC50 is 0.0138 µM.

As for `Cc1ncsc1-c1ccc(CNC(=O)[C@@H]2C[C@@H](O)CN2C(=O)[C@@H](NC(=O)CCCCCCCCNC(=O)CN2CCN(c3ccc(Nc4nc5cccc(-c6ccc(S(C)(=O)=O)cc6)n5n4)cc3)CC2)C(C)(C)C)cc1` [JA-121, (2S,4R)-1-((S)-3,3-Dimethyl-2-(9-(2-(4-(4-((5-(4-(methylsulfonyl)phenyl)-[1,2,4]triazolo[1,5-a]pyridin-2-yl)amino)phenyl)piperazin-1-yl)acetamido)nonanamido)butanoyl)-4-hydroxy-N-(4-(4-methylthiazol-5-yl)benzyl)pyrrolidine-2-carboxamide], the 50% inhibitory concentration (IC50) is above 10 µM.

For the compound `O=C(CN1CCC(n2cc(-c3cnc4cccc(-c5cc(F)c(CN6CCOCC6)c(F)c5)c4n3)cn2)CC1)NCCCCCCCCNc1cccc2c1C(=O)N(C1CCC(=O)NC1=O)C2=O` (centres unmarked) [JA-149, 2-(4-(4-(8-(3,5-Difluoro-4-(morpholinomethyl)phenyl)quinoxalin-2-yl)-1H-pyrazol-1-yl)piperidin-1-yl)-N-(8-((2-(2,6-dioxopiperidin-3-yl)-1,3-dioxoisoindolin-4-yl)amino)octyl)acetamide], the IC50 was above 10 µM.

As for `Cc1cnc(Nc2ccc(N3CCN(C(=O)CCCCCNc4ccc5c(c4)C(=O)N(C4CCC(=O)NC4=O)C5=O)CC3)cc2)nc1Nc1cccc(S(=O)(=O)NC(C)(C)C)c1` (centres unmarked) [JA-229, N-(tert-butyl)-3-((2-((4-(4-(6-((2-(2,6-dioxopiperidin-3-yl)-1,3-dioxoisoindolin-5-yl)amino)hexanoyl)piperazin-1-yl)phenyl)amino)-5-methylpyrimidin-4-yl)amino)benzenesulfonamide], the IC50 is above 10 µM.

For the compound `Cc1ncsc1-c1ccc(CNC(=O)[C@@H]2C[C@@H](O)CN2C(=O)[C@@H](NC(=O)COCCOCCOCCNC(=O)CN2CCC(n3cc(-c4cnc5cccc(-c6cc(F)c(CN7CCOCC7)c(F)c6)c5n4)cn3)CC2)C(C)(C)C)cc1` [JA-157, (2S,4R)-1-((S)-2-(tert-Butyl)-17-(4-(4-(8-(3,5-Difluoro-4-(morpholinomethyl)phenyl)quinoxalin-2-yl)-1H-pyrazol-1-yl)piperidin-1-yl)-4,16-dioxo-6,9,12-trioxa-3,15-diazaheptadecanoyl)-4-hydroxy-N-(4-(4-methylthiazol-5-yl)benzyl)pyrrolidine-2-carboxamide], the IC50 was above 10 µM.

Take `Cc1cnc(Nc2ccc(N3CCN(C(=O)CCOCCOCCC(=O)N[C@H](C(=O)N4C[C@H](O)C[C@H]4C(=O)NCc4ccc(-c5scnc5C)cc4)C(C)(C)C)CC3)cc2)nc1Nc1cccc(S(=O)(=O)NC(C)(C)C)c1` [JA-033, (2S,4R)-1-((S)-2-(3-(2-(3-(4-(4-((4-((3-(N-(tert-Butyl)sulfamoyl)phenyl)amino)-5-methylpyrimidin-2-yl)amino)phenyl)piperazin-1-yl)-3-oxopropoxy)ethoxy)propanamido)-3,3-dimethylbutanoyl)-4-hydroxy-N-(4-(4-methylthiazol-5-yl)benzyl)pyrrolidine-2-carboxamide]: the IC50 is above 10 µM.
